# Data reported in patent US20140123342A1, “Regulation of Stomatal Apertures by Apyrases and Extracellular Nucleotides” (BOARD OF REGENTS, THE UNIVERSITY OF TEXAS SYSTEM, priority 2011, published 2014).
# Columns and labels:
# Format in all cases: cell-based, Arabidopsis thaliana
# [1] = test system: stomata (guard cells) in epidermal peels; test: Stomatal aperture closure studies, epidermal peels in the light
# Procedure: (§1) Stomatal Aperture Studies: Arabidopsis thaliana ecotypes Columbia (Col-0) and Wassilewskija (WS) were used as wild types in this study. Col-0, nia1nia2, atrbohD/F, R2-4A and WS plants were all grown on autoclaved Metro-Mix 200 soil at 22° C. under continuous light. The mutant seeds nia1nia2 nia2-5; CS 2356; Col-0 background) were obtained from Dr. N. M. Crawford (University of California at San Diego) and the mutant seeds atrbohD/F (Col-0 background) were obtained from Dr. J. M. Kwak (University of Maryland). The RNAi mutant apyrase line (R2-4A) is in WS background, so WS ecotype was used as the control wild type for these studies. Leaves from 2 to 3 week old Col-0 plants, or R2-4A and WS plants treated with 4 μM estradiol for 1 week after development of mature basal leaves were used for peel and whole leaf studies. Plants were placed in the dark and watered 24 h before an study. For opening studies, plants were used immediately after 24 h dark treatment and all treatments were done in the dark except for the light treated leaves or peels, thus the control stomata are dark controls. For closure studies, plants were placed in the light 3 h before an study to induce stomatal opening and all treatments were done in the light, thus the control stomata are light controls. For peel studies, epidermal peels were made from the underside of the leaf and treatments were applied to the peels for 1 h. For whole leaf studies, leaves were removed and treatments were applied for 2 h. For each treatment, about 3 or 4 peels collected from different leaves or 3 or 4 different leaves of at least two different plants were floated with the abaxial side up in petri dishes on 3 mL of Arabidopsis leaf buffer consisting of 10 mM KCl, 25 mM MES pH 6.15 (Melotto et al., 2006) and the chemical being tested. For whole leaf studies peels were collected after the treatment.
# (§2) For studies testing the effects of ATPγS, ADPγS, AMPS, RB2, and PPADS (Sigma, St. Louis, Mo., USA) 20 mM stocks were made by dissolving the compounds in de-ionized water. For studies testing the effects of apyrase inhibitors, 7.5 mg/mL of NGXT191 and of inhibitor #13 (Windsor et al., 2002) was dissolved in dimethyl sulfoxide (DMSO) and then applied at a dilution of […] for a final concentration of 0.1% DMSO. ABA (Sigma, St. Louis, Mo., USA) was dissolved in ethanol in 10 mM stocks and then applied at a dilution of 1:1000. The stocks were stored at −20° C. while not in use. The production of the anti-AtAPY1 antibodies used is described by Steinebrunner et al. (2003). The crude immune and pre-immune sera were purified using protein A-Sepharose following the protocol described by Martin (1982) with the slight modification that the buffers used were azide-free. The protein-A purified sera were both used at a 1:1000 dilution in leaf stomatal aperture studies. The concentration of the immune and pre-immune sera, determined by Bradford assay (Bio-Rad), was 10.2 μg/mL and 7.7 μg/mL, respectively.
# (§3) After treatment, photos of stomata were taken using a light microscope at 20×. Stomatal aperture width was measured using the image processing software ImageJ. Typically, photos were taken of 70 to 90 stomata per treatment of which only 50 stomata were measured for each treatment. For each treatment the ratio of closed stomata (width of 0) to open stomata was determined for all stomata imaged and this ratio was maintained in the 50 stomata that were measured for each treatment. Data shown uses apertures determined as width/length, however data in all studies also obtained as width only and generally width/length and width only data are in agreement with each other. Statistical significance of the measurements for the treatments was determined using the Student's t test in Microsoft Excel.
# [2] = test system: guard cells of x-luc1 and x-luc9 ecto-luciferase lines; test: Ecto-luciferase luminescence imaging of extracellular ATP in epidermal peels
# From the text: Ecto-luciferase Construct and Plant Transformation: The nucleotide sequence for the 24 amino acid, cleavable signal peptide from the Brassica pollen coat protein, S-locus cysteine-rich protein (SCR13; AF195626) was used to target luciferase for secretion (Schopfer et al., 1999). The signal peptide was incorporated at the N-terminus of the luciferase gene by PCR and the SCR13 signal peptide modified luciferase PCR product was then ligated into the binary vector pLBJ21. This construct was then transformed into Agrobacterium tumefaciens strain GV3101 (pMP90) and then transformed into Arabidopsis plants (Col-0) using the floral dipping method (Clough and Bent, 1998). Transgenic plants were selected by planting on solidified Murashige and Skoog (MS) medium (4.3 g/L Murashige and Skoog salts (Sigma), 0.5% (w/v) MES, and 1.0% (w/v) agar, raised to pH 5.7 with 5 M KOH) containing 50 μg/mL kanamycin. Segregation of T3 generation on kanamycin plates was analysed in order to obtain homozygous lines. Plants showing kanamycin resistance were checked for luciferase activity by growing transgenic plants in MS medium for 10 days and then transferring the whole seedlings into test tubes. Luminescence measurements were performed by placing the test tubes in the light-tight housing of the luminometer reader (Dynatech). Experimental solutions with luciferin substrate with and without 1 mM ATP were injected by an automatic injector, and after 3 seconds counting started at 0.2 second time intervals.
# Imaging of Luminescence in Ecto-luciferase Plants: Ecto-luciferase seeds were surface-sterilized, stratified in the dark in 4° C. for at least three days and then planted directly on a cellophane membrane placed upon solidified MS with 1.0% (w/v) agar. Planted plates were placed upright in a culture chamber and grown at 23° C. under 24-h fluorescent light for 7 days. Plates were then reoriented so that the solidified MS medium was at the bottom of the plate and the seedling was able to grow up into the empty space of the petri dish. Seedlings were then allowed to mature for up to 4 weeks under identical temperature and light settings. For “dark” studies petri dishes of 3-4 week old plants were placed in a dark chamber for 24 hours prior to use in the studies.
# Mature basal leaves were excised from x-luc1 and x-luc9 plants 3-4 weeks old. Peels were taken and then immediately floated with the abaxial side up in 40 μL, of Arabidopsis leaf buffer on a microscope slide and the chemical being tested in either light or dark conditions depending on the experimental setup. The placing of the peels within their respective solution was considered time zero. Peels were treated for a minimum of 5 minutes before luciferin and flash buffer were added to the solution. […] Luminescence was integrated over 120 seconds, High Gain, Read Out set to slow, using 4×4 pixel binning with Cosmic Suppression on, Background Correction off, and Flatfield Correction off with the filter set to Photo.
# All luminescence analysis was conducted using the indiGO Analysis Software (version 2.0.0.26). All images consisted of a photographic image in grayscale with an overlaid luminescence image in pseudo color. […]
# [3] = test system: stomata (guard cells) in whole leaves; test: Stomatal aperture closure studies, whole leaves in the light; details: for effect on ABA-induced stomatal closure / effect on ATPγS-induced stomatal closure: co-incubation
# Procedure: as §1, §2, §3
# [4] = test system: stomata (guard cells) in epidermal peels; test: Stomatal aperture opening studies, epidermal peels in the dark
# Procedure: as §1, §2, §3
# H2O2 in guard cells = test: Detection and quantification of H2O2 (H2DCFDA fluorescence); details: co-incubation (data not shown)
# Procedure: (§4) Detection and Quantification of H2O2 and NO: Col-0 plants were grown on soil for 2 to 4 weeks under continuous light at 21° C. Plants were placed in the dark for 24 h to ensure closure and then transferred to the light for 1 h. After 1 h in the light, mature basal leaves were excised and blended in a Waring blender on the low setting for approximately 10 s to isolate epidermal tissues, and the tissues were placed in 3 mL of 30 mM KCl, 10 mM Mes-KOH, pH 6.16 buffer in light for 2 h (Pei et al., 2000; Murata et al., 2001). DAF-2 DA and H2DCFDA were dissolved in DMSO to produce 5 mM and 10 mM stock solutions, respectively, and these were stored at −20° C. in 30 μL, aliquots. Fifty μM H2DCFDA or 15 μM DAF-2 DA was added to the medium in the dark, and after 30 min, 10 μM ABA, 200 μM ATPγS, or buffer (ATP control) was also added to the medium in the dark for 30 min. Peels were then rinsed by decanting the treatment solution and adding 3 mL fresh leaf buffer to the peels. Peels were rinsed twice as described. A peel from each of the three treatments (ABA, ATPγS and buffer) were placed on the same microscope slide and observed sequentially. A second study was staggered 30 to 45 min after the first by loading the H2DCFDA or DAF-2 DA dye to new peels 30 to 45 min after the first round of dye was added. Confocal laser scanning microscopy (CLSM) was performed with a Leica SP2 AOBS confocal microscope (Leica Microsystems, Bannockburn, Ill., USA). Laser power was set at 15%, with an excitation of 488 nm and an emission of 525 nm. A series of 0.5 μm optical sections with average intensity projection along the z axis were collected and made into one 2D image with greater focal depth. All images were obtained with the same software scanning settings including detector gain and laser intensity settings.
# [5] = test system: stomata (guard cells) in whole leaves; test: Stomatal aperture opening studies, whole leaves in the dark
# Procedure: as §1
# as §2, with “The crude immune and pre-immune sera were purified using protein A-Sepharose following the protocol described by Martin (1982) with the slight modification that the buffers used were azide-free. The protein-A purified sera were both used at a 1:1000 dilution in leaf stomatal aperture studies.” left out
# as §3
# NO in guard cells = test: Detection and quantification of NO (DAF-2 DA fluorescence); details: co-incubation (data not shown)
# Procedure: as §4
# [6] = co-incubation, epidermal peel studies (data not shown)
# [7] = co-incubation, 30 μM, leaves (data not shown)
# [8] = 30 μM, whole leaf studies (not shown)
smiles,measurement,setting,value
Nc1ncnc2c1ncn2[C@@H]1O[C@H](COP(=O)(O)OP(O)(O)=S)[C@@H](O)[C@H]1O [ADPβS],threshold for nucleotide-induced stomatal closure,"[1]; epidermal peel studies, light",same threshold
same,"ecto-luciferase luminescence of stomata, average","[2]; 200 μM, 5 min, open stomata (data not shown)",2.75 cps
same,threshold for nucleotide-induced stomatal closure,"[3]; whole leaf studies, compared with peel studies (150 to 200 μM; not shown)",the same as found in the peel studies
Nc1ncnc2c1ncn2[C@@H]1O[C@H](COP(O)(O)=S)[C@@H](O)[C@H]1O [AMPS],effect on stomatal aperture,"[4]; 15 μM, darkness, 1 h",no effect on stomatal aperture
same,effect on stomatal aperture,"[1]; 200 μM, dose-response tests, summary statement",neither 15 μM nor 200 μM AMPS has any effect
same,effect on stomatal aperture,"[1]; 250 μM, epidermal peels, light, 1 h",no effect on stomatal aperture
Nc1ncnc2c1ncn2[C@@H]1O[C@H](COP(=O)(O)OP(=O)(O)OP(=O)(O)O)[C@@H](O)[C@H]1O [ATP],"ecto-luciferase luminescence, average","[2]; 1 mM, 5 min or longer, x-luc1 and x-luc9 lines, centered around guard cells",4.75 counts per second (cps)
same,"ecto-luciferase luminescence of pavement cells, average","[2]; 1 mM, pavement cells of the epidermis",1.35 cps
"CC(=O)N[C@@H](CS)C(=O)O [NAC, N-acetyl-L-cysteine]",effect on ABA- and ATPγS-induced H2DCFDA fluorescence,H2O2 in guard cells,blocked
"Cc1cccc(NS(=O)(=O)c2ccc(-c3ccccc3)cc2)c1 [NGXT 191, N-(3-methylphenyl)-4-biphenylsulfonamide]",effect on stomatal aperture,"[1]; 7.5 μg/mL, epidermal peels, light, 1 h",induced stomatal closure
"Cc1nc(N=Nc2ccc(S(=O)(=O)O)cc2S(=O)(=O)O)c(COP(=O)(O)O)c(C=O)c1O [PPADS, pyridoxalphosphate-6-azo-phenyl-2′,4′-disulphonic acid]",effects in opening studies compared with epidermal peels,"[5]; whole leaves (data not shown), alone, on ATPγS-induced and on light-induced opening",the same effects
same,effect on stomatal aperture,"[4]; 100 μM alone, opening studies",no effect alone
same,effect on light-induced stomatal opening,"[4]; co-incubation, 100 μM",partially blocked
same,effect on ATPγS-induced stomatal opening,"[4]; co-incubation, 100 μM, with 15 μM ATPγS",blocked
same,effect on stomatal aperture,"[1]; 100 μM alone, epidermal peels, light",no effect by itself
same,effect on NGXT 191-induced stomatal closure,"[1]; co-incubation, 100 μM, with 7.5 μg/mL NGXT 191, epidermal peels",blocked
same,effect on ABA-induced stomatal closure,[1]; [6],partially block
same,effect on ATPγS-induced stomatal closure,[1]; [6],block
same,effect on stomatal aperture,"[3]; 100 μM alone, leaves, light",no effect alone
same,effect on ABA-induced stomatal closure,"[3]; 100 μM, with 10 μM ABA, leaves",partially blocked
same,effect on ATPγS-induced stomatal closure,"[3]; 100 μM, with 200 μM ATPγS, leaves",blocked
"Nc1c(S(=O)(=O)O)cc(Nc2ccc(Nc3nc(Cl)nc(Nc4cccc(S(=O)(=O)O)c4)n3)c(S(=O)(=O)O)c2)c2c1C(=O)c1ccccc1C2=O [RB2, reactive blue 2]",effect on stomatal aperture,"[5]; 30 μM alone, opening studies, leaves",no effect by itself
same,effect on ATPγS-induced stomatal opening,[5]; [7],block
same,effect on light-induced stomatal opening,[5]; [7],partially block
same,effect on stomatal aperture,"[3]; 30 μM alone, closure studies, leaves",no effect alone
same,effect on ABA-induced stomatal closure,[3]; [8],partially block
same,effect on ATPγS-induced stomatal closure,[3]; [8],block
"O=C(Nc1cccc([N+](=O)[O-])c1)c1cccc(S(=O)(=O)Nc2ccc(Br)cc2)c1 [apyrase inhibitor #13, 3-{[(4-bromophenyl)amino]sulfonyl}-N-(3-nitrophenyl)benzamide]",effect on stomatal aperture,"[3]; 7.5 μg/mL, whole leaves (data not shown)",caused stomatal closure
CC1(C)N([O])C(c2ccc(C(=O)O)cc2)=[N+]([O-])C1(C)C [cPTIO],effect on ABA- and ATPγS-induced DAF-2 DA fluorescence,NO in guard cells,blocked
